Reference: ChEMBL document CHEMBL3091331, “Aminothiazole-featured pirinixic acid derivatives as dual 5-lipoxygenase and microsomal prostaglandin E2 synthase-1 inhibitors with improved potency and efficiency in vivo” (J Med Chem, 2013)
Active and inactive are the calls of the source. The rule behind the calls is not given here.

Legend:
Prostaglandin E synthase [1] = biological target: T1, Prostaglandin E synthase (Homo sapiens, UniProt O14684); assay: Inhibition of mPGES-1 from human A549 cell microsomal membranes using PGH2 as substrate incubated 15 mins prior to substrate addition measured after 1 min by RP-HPLC analysis
T1 sequence (O14684 whole entry): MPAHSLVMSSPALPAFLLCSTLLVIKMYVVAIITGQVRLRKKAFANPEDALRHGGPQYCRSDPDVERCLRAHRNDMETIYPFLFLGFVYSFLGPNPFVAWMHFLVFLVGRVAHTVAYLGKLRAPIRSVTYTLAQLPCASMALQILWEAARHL

[2] = biological target: T2, Polyunsaturated fatty acid 5-lipoxygenase (Homo sapiens, UniProt P09917); assay: Inhibition of 5-lipoxygenase in A23187-stimulated human polymorphonuclear leukocytes using arachidonic acid as substrate incubated 15 mins prior to substrate addition measured after 10 mins by HPLC analysis
T2 sequence (P09917 whole entry): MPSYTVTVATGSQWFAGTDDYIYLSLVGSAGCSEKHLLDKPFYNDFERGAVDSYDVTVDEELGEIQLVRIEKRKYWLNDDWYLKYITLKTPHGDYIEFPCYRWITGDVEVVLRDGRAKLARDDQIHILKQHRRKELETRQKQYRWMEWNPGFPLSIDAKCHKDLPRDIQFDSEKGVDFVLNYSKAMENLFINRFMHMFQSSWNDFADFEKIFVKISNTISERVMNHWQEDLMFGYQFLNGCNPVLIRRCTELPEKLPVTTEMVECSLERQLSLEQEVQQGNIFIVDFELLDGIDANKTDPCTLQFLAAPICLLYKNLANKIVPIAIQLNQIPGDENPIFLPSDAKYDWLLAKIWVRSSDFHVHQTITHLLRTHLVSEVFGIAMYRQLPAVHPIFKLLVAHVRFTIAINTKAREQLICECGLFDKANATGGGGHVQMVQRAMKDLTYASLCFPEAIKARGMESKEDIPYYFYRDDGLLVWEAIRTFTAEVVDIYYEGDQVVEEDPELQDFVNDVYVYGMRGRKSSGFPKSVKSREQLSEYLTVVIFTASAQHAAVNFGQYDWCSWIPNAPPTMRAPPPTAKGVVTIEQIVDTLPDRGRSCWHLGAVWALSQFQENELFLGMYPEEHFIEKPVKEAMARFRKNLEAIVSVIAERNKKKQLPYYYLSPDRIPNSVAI

[3] = biological target: T2, Polyunsaturated fatty acid 5-lipoxygenase; assay: Inhibition of human recombinant 5-lipoxygenase expressed in Escherichia coli BL21 using arachidonic acid as substrate incubated 5 to 10 mins prior to substrate addition measured after 10 mins by HPLC analysis
Mus musculus [4] = assay: Antiinflammatory activity in CD-1 mouse peritonitis model assessed as reduction in vascular permeability at 1 mg/kg, ip administered 30 mins prior to zymosan-challenge measured after 4 hrs relative to vehicle-treated control; format: functional; details: CD-1, ip, route intraperitoneal
Mus musculus [5] = assay: Antiinflammatory activity in CD-1 mouse peritonitis model assessed as reduction in myeloperoxidase activity at 1 mg/kg, ip administered 30 mins prior to zymosan-challenge measured after 4 hrs by spectrophotometry relative to vehicle-treated control; format: functional; details: CD-1, ip, route intraperitoneal
Mus musculus [6] = assay: Antiinflammatory activity in CD-1 mouse peritonitis model assessed as reduction in neutrophil infiltration at 1 mg/kg, ip administered 30 mins prior to zymosan-challenge measured after 4 hrs by spectrophotometry relative to vehicle-treated control; format: functional; details: CD-1, ip, route intraperitoneal
Mus musculus [7] = assay: Reduction of PGE2 biosynthesis in CD-1 mouse peritonitis model at 1 mg/kg, ip administered 30 mins prior to zymosan-challenge measured after 4 hrs by RIA (reference value: 1.46 +/- 0.08 ng/ml); format: functional, organism-based; set-up: dose 1 mg/kg
Mus musculus [8] = assay: Reduction of LTC4 formation in CD-1 mouse peritonitis model at 1 mg/kg, ip administered 30 mins prior to zymosan-challenge measured after 30 mins by EIA relative to vehicle-treated control; format: functional; details: CD-1, ip, route intraperitoneal
[9] = biological target: T3, Polyunsaturated fatty acid 5-lipoxygenase (Homo sapiens) (UniProt P09917); assay: Inhibition of human recombinant 5-lipoxygenase expressed in Escherichia coli BL21 using arachidonic acid as substrate at 1 uM incubated 5 to 10 mins prior to substrate addition measured after 10 mins by HPLC analysis
T3 sequence (whole entry): T2 sequence (P09917 whole entry)

[10] = biological target: T4, Prostaglandin E synthase (Homo sapiens) (UniProt O14684); assay: Inhibition of mPGES-1 (unknown origin) assessed as remaining activity at 10 uM; values are per cent of control
T4 sequence (whole entry): T1 sequence (O14684 whole entry)

[11] = tested on: Radical scavenging activity; assay: Antioxidant activity assessed as DPPH radical scavenging activity at 25 to 100 uM after 30 mins; format: functional
[12] = biological target: T2, Polyunsaturated fatty acid 5-lipoxygenase; assay: Inhibition of 5-lipoxygenase in human polymorphonuclear leukocytes; format: cell-based
[13] = biological target: T3, Polyunsaturated fatty acid 5-lipoxygenase (Homo sapiens); assay: Ratio of IC50 for human recombinant 5-lipoxygenase expressed in Escherichia coli BL21 to IC50 for 5-lipoxygenase in human PMNL cells
Prostaglandin E synthase [14] = biological target: T1, Prostaglandin E synthase; assay: Inhibition of mPGES-1 (unknown origin)
[15] = Metabolic stability in Sprague-Dawley rat liver microsomes assessed as compound remaining at 10 uM after 60 mins by HPLC analysis; format: ADME; details: read-out: Stability
Homo sapiens = species: Homo sapiens; assay: Translocation of 5-lipoxygenase from cytosol into nuclear membrane in A23187-stimulated human polymorphonuclear leukocytes assessed as enzyme product formation at 10 uM incubated for 15 mins prior to A23187-challenge measured after 5 mins by Western blotting analysis; format: functional

## CCC(Sc1nc(Cl)cc(Nc2nc(-c3ccc4ccccc4c3)cs2)n1)C(=O)O (stereo not given)
Prostaglandin E synthase [1]
  IC50: 1400 nM
[2]
  IC50: 2900 nM
[3]
  IC50: 2000 nM

## CCCCCCC(Sc1nc(Cl)cc(Nc2nc(-c3ccc(OC)cc3)cs2)n1)C(=O)O (stereo not given)
Prostaglandin E synthase [1]
  IC50: 1300 nM
[2]
  IC50: 800 nM
[3]
  IC50: 1800 nM

## CC(C)c1ccc2c(c1)c(SC(C)(C)C)c(CC(C)(C)C(=O)O)n2Cc1ccc(Cl)cc1
Mus musculus [4]
  inhibition in vivo at 1 mg/kg: 76%
Mus musculus [5]
  inhibition in vivo at 1 mg/kg: 18%
Mus musculus [6]
  inhibition in vivo at 1 mg/kg: 34%
Mus musculus [7]
  inhibition: inactive
Mus musculus [8]
  inhibition in vivo at 1 mg/kg: 94%
[9]
  inhibition: inactive

## CCCCCCC(Sc1nc(Cl)cc(Nc2nc(-c3ccc(Br)cc3)cs2)n1)C(=O)O (stereo not given)
Prostaglandin E synthase [1]
  IC50: 800 nM
[2]
  IC50: 300 nM
[3]
  IC50: 700 nM

## CCCCCCC(Sc1nc(Cl)cc(Nc2ccc3[nH]c(C(F)(F)F)nc3c2)n1)C(=O)O (stereo not given)
[10]
  residual activity: 43.4%

## O=C(O)CSc1nc(Cl)cc(Nc2nc(-c3ccc(Cl)cc3)cs2)n1
Prostaglandin E synthase [1]
  IC50: 2300 nM
[2]
  IC50: > 10000 nM
[3]
  IC50: > 10000 nM

## CCCCCCC(Sc1nc(Cl)cc(Nc2nc(-c3ccccc3)cs2)n1)C(=O)O (stereo not given)
Prostaglandin E synthase [1]
  IC50: 800 nM
[2]
  IC50: 600 nM
[3]
  IC50: 2000 nM

## N[C@@H](CS)C(=O)O
[11]
  Activity: Active

## CCCCCCC(Sc1nc(Cl)cc(Nc2nc(-c3ccc(F)cc3F)cs2)n1)C(=O)O (stereo not given)
Prostaglandin E synthase [1]
  IC50: 1800 nM
[2]
  IC50: 1500 nM
[3]
  IC50: 2500 nM

## CCCCCCC(Sc1nc(Cl)cc(Nc2ccc(-c3ccccc3)cc2)n1)C(=O)O (stereo not given)
[12]
  IC50: 730 nM

## CCCCCC[C@H](Sc1nc(Cl)cc(Nc2nc(-c3ccc4ccccc4c3)cs2)n1)C(=O)O
Prostaglandin E synthase [1]
  IC50: 600 nM
[2]
  IC50: 900 nM
[3]
  IC50: 300 nM

## CCCCCCC(Sc1nc(Cl)cc(Nc2nc(-c3ccccc3)c(-c3ccccc3)s2)n1)C(=O)O (stereo not given)
Prostaglandin E synthase [1]
  IC50: 600 nM
[2]
  IC50: 600 nM
[3]
  IC50: 700 nM

## CCCCCCC(Sc1nc(Cl)cc(Nc2nc(C34CC5CC(CC(C5)C3)C4)cs2)n1)C(=O)O (stereo not given)
Prostaglandin E synthase [1]
  IC50: 900 nM
[2]
  IC50: 3300 nM
[3]
  IC50: 5000 nM

## CCCCCCC(Sc1nc(Cl)cc(Nc2nc(-c3ccc(Br)cc3)c(C)s2)n1)C(=O)O (stereo not given)
Prostaglandin E synthase [1]
  IC50: 1300 nM
[2]
  IC50: 200 nM
[13]
  Ratio IC50: 8
[3]
  IC50: 1600 nM

## CCCCCCC(Sc1nc(Cl)cc(Nc2nc(-c3ccccc3)c(CC)s2)n1)C(=O)O (stereo not given)
Prostaglandin E synthase [1]
  IC50: 1700 nM
[2]
  IC50: 700 nM
[3]
  IC50: 1800 nM

## CCCCCCC(Sc1nc(Cl)cc(Nc2nc(-c3ccc(-c4ccccc4)cc3)cs2)n1)C(=O)O (stereo not given)
Prostaglandin E synthase [1]
  IC50: 500 nM
[2]
  IC50: 300 nM
[3]
  IC50: 600 nM

## CCCCCCC(Sc1nc(Cl)cc(Nc2nc(-c3ccc(C(F)(F)F)cc3)cs2)n1)C(=O)O (stereo not given)
Prostaglandin E synthase [1]
  IC50: 400 nM
[2]
  IC50: 600 nM
[3]
  IC50: 1200 nM

## CCCCCCC(Sc1nc(Cl)cc(Nc2cccc(-c3ccccc3)c2)n1)C(=O)O (stereo not given)
Prostaglandin E synthase [14]
  IC50: 4000 nM
[12]
  IC50: 600 nM

## O=C1O[C@H]([C@@H](O)CO)C(O)=C1O
[11]
  Activity: Active

## CCCCCCC(Sc1nc(Cl)cc(Nc2nc(-c3ccc(Cl)cc3Cl)cs2)n1)C(=O)O (stereo not given)
Prostaglandin E synthase [1]
  IC50: 400 nM
[2]
  IC50: 800 nM
[3]
  IC50: 1100 nM

## CCCCCCC(Sc1nc(Cl)cc(Nc2nc3c(s2)CCc2cc(OC)ccc2-3)n1)C(=O)O (stereo not given)
Prostaglandin E synthase [1]
  IC50: 1900 nM
[2]
  IC50: 200 nM
[13]
  Ratio IC50: 8
[3]
  IC50: 1900 nM

## CCCCCCC(Sc1nc(Cl)cc(Nc2nc(-c3ccc(Cl)c(Cl)c3)cs2)n1)C(=O)O (stereo not given)
Prostaglandin E synthase [1]
  IC50: 300 nM
[2]
  IC50: 400 nM
[3]
  IC50: 700 nM

## CCCCCCC(Sc1nc(Cl)cc(Nc2nc(-c3ccc([N+](=O)[O-])cc3)cs2)n1)C(=O)O (stereo not given)
Prostaglandin E synthase [1]
  IC50: 5000 nM
[2]
  IC50: 1400 nM
[3]
  IC50: 1800 nM

## CCCCCCC(Sc1nc(Cl)cc(Nc2nc(-c3ccccc3)c(C)s2)n1)C(=O)O (stereo not given)
Prostaglandin E synthase [1]
  IC50: 700 nM
[2]
  IC50: 600 nM
[3]
  IC50: 1900 nM
[15]
  remaining at 1 h, 10 µM: 74%

## CCOc1ccc2ccc(=O)oc2c1 [ETHOXYCOUMARIN]
[15]
  remaining at 1 h, 10 µM: 31%

## CCCCCCC(Sc1nc(Cl)cc(Nc2nc(-c3ccc4c(c3)CCCC4)cs2)n1)C(=O)O (stereo not given)
Prostaglandin E synthase [1]
  IC50: 400 nM
[2]
  IC50: 400 nM
[3]
  IC50: 2300 nM

## CCCCCCC(Sc1nc(Cl)cc(Nc2nc(-c3ccc(Cl)cc3)cs2)n1)C(=O)O (stereo not given)
Prostaglandin E synthase [1]
  IC50: 700 nM
[2]
  IC50: 900 nM
[3]
  IC50: 800 nM

## CC(C)=CCC[C@]1(C)[C@@H](CC=C(C)C)C[C@]2(CC=C(C)C)C(=O)C(CC=C(C)C)=C(O)[C@@]1(C(=O)C(C)C)C2=O
Homo sapiens
  Activity: Active

## CCC(Sc1nc(Cl)cc(Nc2nc(-c3ccc(Cl)cc3)cs2)n1)C(=O)O (stereo not given)
Prostaglandin E synthase [1]
  IC50: 1400 nM
[2]
  IC50: 3600 nM
[3]
  IC50: 6600 nM

## CCCCC(Sc1nc(Cl)cc(Nc2nc(-c3ccc(Cl)cc3)cs2)n1)C(=O)O (stereo not given)
Prostaglandin E synthase [1]
  IC50: 1200 nM
[2]
  IC50: 900 nM
[3]
  IC50: 3800 nM

## CCCCCCC(Sc1nc(Cl)cc(Nc2cccc(C)c2C)n1)C(=O)O (stereo not given)
[2]
  IC50: 3900 nM

## CCCCCCC(Sc1nc(Cl)cc(Nc2nc(-c3ccc(F)c(F)c3)cs2)n1)C(=O)O (stereo not given)
Prostaglandin E synthase [1]
  IC50: 1600 nM
[2]
  IC50: 1500 nM
[3]
  IC50: 2300 nM

## CCCCCCC(Sc1nc(Cl)cc(Nc2nc(-c3cccc4ccccc34)cs2)n1)C(=O)O (stereo not given)
Prostaglandin E synthase [1]
  IC50: 1700 nM
[2]
  IC50: 400 nM
[3]
  IC50: 700 nM

## CCCCCCC(Sc1nc(Cl)cc(Nc2nc(-c3ccc(C)cc3)cs2)n1)C(=O)O (stereo not given)
Prostaglandin E synthase [1]
  IC50: 700 nM
[2]
  IC50: 200 nM
[13]
  Ratio IC50: 8
[3]
  IC50: 3000 nM

## CCCCCC[C@@H](Sc1nc(Cl)cc(Nc2nc(-c3ccc4ccccc4c3)cs2)n1)C(=O)O
Prostaglandin E synthase [1]
  IC50: 600 nM
[2]
  IC50: 400 nM
[3]
  IC50: 400 nM

## O=C(O)C(Sc1nc(Cl)cc(Nc2nc(-c3ccc(Cl)cc3)cs2)n1)c1cccc2ccccc12 (stereo not given)
Prostaglandin E synthase [1]
  IC50: 500 nM
[2]
  IC50: 400 nM
[3]
  IC50: 700 nM
